Tests used:
[1] = Plasma atorvastatin and metabolite concentrations/AUC (LC-MS/MS) with and without supplemental vitamin D; type: in vivo, human
Protocol: Study protocol. A prospective crossover study was performed. […] Columbus Ohio 43216). All other prescribed medications were continued unchanged throughout the study. […] The sample cone voltage and collision energy for all analytes and internal standard were set at 30 V and 20 eV, respectively. Chromatography was performed on BDS C18 column (50×4.6 mm, 5 μm particle size, Thermo Electron Corporation, Bellefonte, Pa.). […] Twenty-five percent of flow liquid was split into the mass system. […] The organic layer then transferred to another tube and evaporated by N2 gas and reconstituted with 0.2 ml 50% CH3CN containing 0.05% acetic acid and 5 mM ammonium acetate, and 20 μl was injected onto column. Lower limit of detection was 0.313 ng/ml for atorvasatin and metabolites. […] Area under the plasma concentration vs. time curve (AUC) was calculated by trapezoidal rule.

[2] = tested on: circulating cholesterol; assay: Example 2: atorvastatin with 1000 IU/day vitamin D2 or D3 or placebo for 12 weeks, circulating cholesterol; type: in vivo, human; conditions: co-administration with atorvastatin
Protocol: The focus is on clinical populations including the elderly, frail, and minorities under steady-state conditions and with conditions reflecting “usual” clinical conditions with use of sparse sampling techniques and minimal impact on clinical care. […] About 90 participants are enrolled, with 30 receiving placebo, 30 receiving vitamin D2, and 30 receiving vitamin D3. Total vitamin D intake is analyzed (primarily driven by dairy food intake and supplements), and patients with major absorptive disorders (intestinal bypass surgery, feeding tubes requiring liquid diets, etc) are excluded. Other factors that could affect vitamin D absorption such as alcohol intake are evaluated.

[3] = tested on: CYP3A; conditions: in vitro; complex with the vitamin D receptor; CYP3A substrate midazolam; cited from earlier work
[4] = tested on: cholesterol (total, LDL-cholesterol, and HDL-cholesterol); assay: Serum cholesterol concentrations (enzymatic assay) in patients on atorvastatin with and without supplemental vitamin D; type: in vivo, human; conditions: for Cholesterol Total: serum; for Cholesterol Total / LDL-cholesterol / HDL-cholesterol: mean ± S.D.; for LDL-cholesterol: calculated LDL
Protocol: Study protocol. A prospective crossover study was performed. […] Columbus Ohio 43216). All other prescribed medications were continued unchanged throughout the study. […] Lipid concentration data. Serum samples were analyzed for cholesterol, LDL-cholesterol (calculated) and HDL-cholesterol concentrations by enzymatic assay (Quest Diagnostics, San Jose, Calif.).

[5] = Serum vitamin D metabolite concentrations (LCMSMS) in patients on atorvastatin, crossover with/without supplemental vitamin D; type: in vivo, human; conditions: vitamin D supplementation 800 IU/day for six weeks (On-D), mean ± S.D.
Protocol: Study protocol. A prospective crossover study was performed. […] If subjects were taking vitamin D supplementation at recruitment, assigned study order was “On-D” after six week of standardized study dispensed vitamins followed by the “Off-D” study after six weeks of vitamin D discontinuation. […] All other prescribed medications were continued unchanged throughout the study.

[6] = tested on: cholesterol (total, LDL-cholesterol); assay: Example 3: 1000 IU/day vitamin D for 12 weeks in humans not receiving atorvastatin, cholesterol; type: in vivo, human; conditions: one middle-aged subject
Protocol: A study is performed with 1000 IU/day of either vitamin D2 or vitamin D3 or identically packaged placebo for a period of 12 weeks. Cholesterol (total, LDL-cholesterol, HDL-cholesterol) and triglycerides are evaluated before and during supplemental vitamin D or placebo. Focus is on adult humans with or without known lipid disorders that are not receiving atorvastatin.

[7] = no vitamin D supplementation (Off-D), atorvastatin
[8] = vitamin D supplementation 800 IU/day six weeks (On-D), patients on atorvastatin

CC(C)c1c(C(=O)Nc2ccc(O)cc2)c(-c2ccccc2)c(-c2ccc(F)cc2)n1CC[C@@H](O)C[C@@H](O)CC(=O)O [4-hydroxy-atorvastatin acid, 4-hydroxyatorvastatin acid]
AUC/concentrations during vitamin D co-administration compared to the off-D study period ([1]; comparison between study periods): significantly lower
ratio of hydroxy-atorvastatin acid to atorvastatin ([1]; during supplemental vitamin D): 0.09±0.09
ratio of hydroxy-atorvastatin acid to atorvastatin ([1]; off-D): 0.10±0.09

C=C1CC[C@H](O)C/C1=C/C=C1\CCC[C@]2(C)[C@@H]([C@H](C)/C=C/[C@H](C)C(C)C)CC[C@@H]12 [vitamin D2, ergocalciferol]
circulating cholesterol compared with atorvastatin and placebo [2]: additional reduction

C=C1/C(=C\C=C2/CCC[C@]3(C)[C@@H]([C@H](C)CCCC(C)(C)O)CC[C@@H]23)C[C@@H](O)C[C@@H]1O [1,25-(OH)2 vitamin D]
regulation of CYP3A activity [3]: increased transcription of CYP3A protein and greater metabolism of the CYP3A substrate midazolam

CC(C)c1c(C(=O)Nc2ccccc2)c(-c2ccccc2)c(-c2ccc(F)cc2)n1CC[C@@H](O)C[C@@H](O)CC(=O)O [atorvastatin]
Cholesterol Total ([4]; no vitamin D supplementation (Off-D), atorvastatin 45±33 mg/day): 169 ± 35 mg/dL
Cholesterol Total ([4]; no vitamin D supplementation (Off-D), atorvastatin 45±33 mg/day, listed as Atorvastatin): 169 ± 35 mg/dL
LDL-cholesterol [4, 7]: 97 ± 28 mg/dL
LDL-cholesterol ([4]; no vitamin D supplementation (Off-D), atorvastatin, listed as Atorvastatin): 97 ± 28 mg/dL
HDL-cholesterol [4, 7]: 47 ± 11 mg/dL

C=C1CC[C@H](O)C/C1=C/C=C1\CCC[C@]2(C)[C@@H]([C@H](C)CCCC(C)C)CC[C@@H]12 [D3, cholecalciferol]
circulating cholesterol compared with atorvastatin and placebo [2]: additional reduction

CC(C)c1c(C(=O)Nc2ccccc2O)c(-c2ccccc2)c(-c2ccc(F)cc2)n1CCC(O)CC(O)CC(=O)O (centres unmarked) [2-OH, 2-hydroxyatorvastatin acid]
ratio of hydroxy-atorvastatin acid to atorvastatin ([1]; during supplemental vitamin D): 0.74±0.36
ratio of hydroxy-atorvastatin acid to atorvastatin ([1]; off-D): 0.81±0.32

vitamin D
Vitamin D (25-OH) Total 25-hydroxy serum concentration ([5]; patients on atorvastatin): 29 ± 14 ng/mL
Vitamin D (active) 1,25-dihydroxy serum concentration ([5]; patients on atorvastatin): 38 ± 15 pg/mL
D3, 25-hydroxy serum concentration [5]: 20 ± 17 ng/mL
difference in HDL-cholesterol with vitamin D supplementation ([4]; On-D versus Off-D): No difference
subjects with lower total cholesterol during supplemental vitamin D ([4]; On-D versus Off-D, patients on atorvastatin): thirteen of sixteen
mean difference in LDL-cholesterol ([4]; after six weeks of vitamin D supplementation, co-administered with atorvastatin): 14.4%
Cholesterol Total ([4]; vitamin D supplementation 800 IU/day six weeks (On-D), patients on atorvastatin 45±33 mg/day): 157 ± 37 mg/dL
LDL-cholesterol [4, 8]: 83 ± 30 mg/dL
HDL-cholesterol [4, 8]: 44 ± 11 mg/dL
total cholesterol ([6]; after about 12 weeks of 1000 IU vitamin D (single and combined forms of D2 and D3), 241 before vitamin D): 201 mg/dL
LDL-cholesterol ([6]; after about 12 weeks of 1000 IU vitamin D, 125 before vitamin D): 112 mg/dL
LDL-cholesterol ([6]; after about 12 weeks of 1000 IU vitamin D, 144 before vitamin D): 98 mg/dL
total cholesterol ([6]; after about 12 weeks of 1000 IU vitamin D, 238 before vitamin D): 219 mg/dL
